Test results: patent US9248131B2, “Aquaporin modulators and methods of using them for the treatment of edema and fluid imbalance” (THE ARIZONA BOARD OF REGENTS ON BEHALF OF THE UNIVERSITY OF …, priority 2006, dated 2016)

What was measured:
AQP4 = target: T1, AQP4 (Homo sapiens, UniProt P55087); assay: Oocyte swelling assay: water permeability (Pf) of AQP4-expressing oocytes by videomicroscopy, block or % stimulation; type: cell-based; conditions: for AQP-4 effect: comparison with bumetanide (in words): relative to bumetanide
T1 construct: expressed in transfected cells; host or cells: Xenopus oocytes
T1 sequence (P55087 whole entry, species assumed): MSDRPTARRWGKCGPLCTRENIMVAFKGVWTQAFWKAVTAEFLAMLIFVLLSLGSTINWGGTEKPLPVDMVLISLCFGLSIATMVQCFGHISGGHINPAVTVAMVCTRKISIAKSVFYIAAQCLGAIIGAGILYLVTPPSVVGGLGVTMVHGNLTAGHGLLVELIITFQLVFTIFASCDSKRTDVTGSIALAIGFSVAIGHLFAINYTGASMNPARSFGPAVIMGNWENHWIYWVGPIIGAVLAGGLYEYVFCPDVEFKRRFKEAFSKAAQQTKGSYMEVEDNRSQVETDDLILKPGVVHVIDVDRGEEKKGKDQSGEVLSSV
Excerpt: (§1) A method for screening compounds for their ability to modulate aquaporin activity based on a water permeability assay in Xenopus oocytes expressing aquaporins which is used to identify, assess, and characterize compounds that either block or stimulate the aquaporin channels including AQP1, AQP4 and AQP9 channels.
(§2) Selection rationale and methodology. The ability of compounds, analogs and/or agents to block an aquaporin channel was quantified by videomicroscopic analyses of cross-sectional area of AQP-expressing oocytes as a function of time in a defined osmotic gradient, allowing the calculation of the water permeability factor (Pf), statistical evaluation of significant differences in the rate of water entry, and definition of dose response curves with IC50 values (concentration required for half-maximal block).
(§3) This compound evaluation method has been utilized with AQP1,-4,-5, and -9 channels. Observations of channel stimulation were made using the same assay method, however, the results were reported as % stimulation over control at a given concentration. […] TEA is known as a blocker of K^+ channel subtypes and nicotinic acetylcholine receptors. TEA sensitivity of AQP1 was removed by site-directed mutagenesis of tyrosine 186 to phenylalanine (Y186F) in the outer vestibule of the water pore, and confirmed that the inhibitory action of TEA is not due to nonspecific effects on endogenous channels (Brooks et al., 2000).

AQP1 [1] = target: T2, AQP1 (Homo sapiens, UniProt P29972); assay: Oocyte swelling assay: water permeability (Pf) of AQP1-expressing oocytes, block or % stimulation; type: cell-based; design: expressed in transfected cells; host or cells: Xenopus oocytes; conditions: for AQP-1 effect (in words): given extracellularly
T2 sequence (P29972 1-269): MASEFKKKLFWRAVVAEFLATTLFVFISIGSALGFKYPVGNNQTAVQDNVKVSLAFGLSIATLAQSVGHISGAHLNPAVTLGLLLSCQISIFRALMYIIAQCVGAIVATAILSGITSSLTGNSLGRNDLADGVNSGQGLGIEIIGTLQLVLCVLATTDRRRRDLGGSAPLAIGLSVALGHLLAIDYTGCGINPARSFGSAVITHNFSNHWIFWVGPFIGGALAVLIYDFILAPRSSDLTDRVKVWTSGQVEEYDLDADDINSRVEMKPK
Excerpt: as §1, §2, §3

[2] = tested on: astrocytes expressing AQP4; conditions: cited from earlier work
AQP4-expressing oocytes = target: T3, AQP4-expressing oocytes (Homo sapiens, UniProt P55087); assay: Simple screen: time to oocyte bursting in hypotonic saline; type: cell-based; conditions: AQP4-expressing oocytes; concentration not given
T3 construct: expressed in transfected cells; host or cells: Xenopus oocytes
T3 sequence (P55087 whole entry, species assumed): as the sequence (P55087 whole entry, species assumed) above
Procedure: The composition of the library for initial AQP channel screening included various channel, transporter and receptor blocking compounds based on intuition and from clues regarding clinical side effects that involved water transporting tissues. In a simple screen (FIG. 1), control and AQP4-expressing oocytes were preincubated in isotonic saline (100 mM NaCl; 5 mM MgCl2; 5 mM HEPES, pH 7.3; ˜200 mOsm) containing the test compound for 10-15 min before each experiment; then the time to oocyte bursting (physical explosion) after transfer to 100 mOsm saline was monitored visually. […] Block was evident in the increased time required for bursting in hypotonic saline.

AQP1 [3] = target: T2, AQP1; conditions: AQP1 expressed in oocytes (Brooks et al., 2000); cited from earlier work
[4] = tested on: Na—K—Cl cotransporter (NKCC1); conditions: perfused kidney ascending loops of Henle; read-out: IC50 against Na—K—Cl cotransporter; cited from earlier work
[5] = ↓ block, ↑ activation, ═ no effect, symbols not defined in the table
[6] = ↓ block, ↑ stimulation, ═ no effect, symbols not defined in the table

## NS(=O)(=O)c1cc(C(=O)O)c(NCc2ccco2)cc1Cl [furosemide, Furosemide, reference compound]
AQP4; 15 μM given intracellularly
  AQP-4 effect: % block: 75%
AQP4; 100 μM extracellularly
  AQP-4 effect (in words): Modest effect
AQP4; extracellular application
  block of swelling rate in AQP4-expressing oocytes: less effective then bumetanide
AQP4; internal injection into the oocyte (intracellular)
  block of swelling in AQP4-expressing oocytes: improved block at lower concentrations
AQP4; [5]
  AQP-4 effect (arrow symbol): ↓↓
AQP1 [1]; [6]
  AQP-1 effect (arrow symbol): ═

## CCCCNc1cc(C(=O)N2CCN(C)CC2)cc(S(N)(=O)=O)c1Oc1ccccc1
AQP4; at 10 μM
  AQP-4 effect (in words): No Significant effect at 10 μM

## C=CCNS(=O)(=O)c1cc(C(=O)OC)c(NCc2ccco2)cc1Cl [AQP-0027]
AQP4; 100 μM, route not stated
  AQP-4 effect: % block / antagonist trend: −25%
AQP4; [5]
  AQP-4 effect (arrow symbol): (↓)?
AQP1 [1]
  AQP-1 effect (in words): No significant effect
AQP1 [1]; [6]
  AQP-1 effect (arrow symbol): ═

## CCCCNc1cc(C(=O)NCc2ccncc2)cc(S(N)(=O)=O)c1Oc1ccccc1
AQP4; at 10 μM
  AQP-4 effect (in words): No Significant effect at 10 μM

## CCCCNc1cc(C(=O)N2CCOCC2)cc(S(N)(=O)=O)c1Oc1ccccc1 [AQP-0006]
AQP4; 10 μM given extracellularly
  AQP-4 effect: % activation: 70%
AQP4; [5]
  AQP-4 effect (arrow symbol): ↑

## C=CCNS(=O)(=O)c1cc(C(=O)O)c(NCc2ccco2)cc1Cl
AQP4; arrow symbols, key not given
  AQP-4 effect (arrow symbol): ↑↑
AQP4; at 100 μM
  AQP-4 effect (in words): Significant Agonist Effect
AQP1 [1]; arrow symbols, key not given
  AQP-1 effect (arrow symbol): ═

## NS(=O)(=O)c1cc(C(=O)O)c(Cl)cc1NCc1ccco1
AQP4; at 100 μM
  AQP-4 effect (in words): Significant Agonist Effect at 100 μM

## CNS(=O)(=O)c1cc(C(=O)O)c(NCc2ccco2)cc1Cl
AQP4; arrow symbols, key not given
  AQP-4 effect (arrow symbol): (↑)?
AQP1 [1]; arrow symbols, key not given
  AQP-1 effect (arrow symbol): ↑

## COC(=O)c1cc(S(N)(=O)=O)c(Cl)cc1NCc1ccco1 [AQP-0022, Furosemide methyl ester]
AQP4; 100 μM extracellularly
  AQP-4 effect (in words): No significant effect
AQP4; [5]
  AQP-4 effect (arrow symbol): ═
AQP1 [1]; [6]
  AQP-1 effect (arrow symbol): ↓↓

## [Pb] [lead]
[2]
  increase in water permeability (Pf): 40%

## CCCCNc1cc(C(=O)NCCN2CCN(C)CC2)cc(S(N)(=O)=O)c1Oc1ccccc1 [AQP-0007]
AQP4; 10 μM given extracellularly
  AQP-4 effect: % activation: 110%
AQP4; [5]
  AQP-4 effect (arrow symbol): ↑↑

## CCCCNc1cc(C(=O)N2CCOCC2)cc(S(N)(=O)=O)c1Oc1ccccc1 [drawing 100]
AQP4; at 10 μM
  AQP-4 effect: % activation: 70% Activation at 10 μM

## COC(=O)c1cc(S(=O)(=O)NCc2ccccc2)c(Cl)cc1NCc1ccco1
AQP4; arrow symbols, key not given
  AQP-4 effect (arrow symbol): ↑
AQP4; at 100 μM
  AQP-4 effect (in words): Significant Agonist Effect
AQP1 [1]; arrow symbols, key not given
  AQP-1 effect (arrow symbol): ═

## CNS(=O)(=O)c1cc(C(=O)OC)c(NCc2ccco2)cc1Cl [AQP-0023, Furosemide methyl ester monomethyl sulfonamide]
AQP4; 100 μM given extracellularly
  AQP-4 effect: % agonist effect / agonist trend: −20%
AQP4; [5]
  AQP-4 effect (arrow symbol): ↑
AQP1 [1]; [6]
  AQP-1 effect (arrow symbol): ↓↓

## CNS(=O)(=O)c1cc(C(=O)OC)c(NCc2ccco2)cc1Cl [drawing 115]
AQP4; arrow symbols, key not given
  AQP-4 effect (arrow symbol): ↑
AQP4; at 100 μM
  AQP-4 effect (in words): Significant Agonist Effect
AQP1 [1]; arrow symbols, key not given
  AQP-1 effect (arrow symbol): ↓↓

## CCCCNc1c(Oc2ccccc2)cc(S(N)(=O)=O)cc1C(=O)O [Bumetanide AQP-0000]
AQP4; 100 μM, route not stated
  AQP-4 effect: % block / antagonist trend: −35%
AQP4; [5]
  AQP-4 effect (arrow symbol): ↓

## [Cl][Hg][Cl] [HgCl2]
AQP4-expressing oocytes
  time to oocyte bursting: no effect

## CCCCNc1cc(C(=O)OC)cc(S(N)(=O)=O)c1Oc1ccccc1 [AQP-0001, bumetanide methyl ester]
AQP4; 1 μM extracellularly
  AQP-4 effect: % block: −30%
AQP4; extracellularly
  AQP-4 effect: potency compared with bumetanide (in words): Improved potency over bumetanide
AQP4; [5]
  AQP-4 effect (arrow symbol): ↓↓

## CCCCNc1cc(C(=O)NCCN2CCS(=O)(=O)CC2)cc(S(N)(=O)=O)c1Oc1ccccc1 [drawing 103]
AQP4; at 10 μM
  AQP-4 effect: % activation: 60% activation at 10 μM

## CCCCNc1cc(C(=O)NCc2cccnc2)cc(S(N)(=O)=O)c1Oc1ccccc1
AQP4; at 10 μM
  AQP-4 effect: % block: 50% block at 10 μM

## CCCCNc1c(Oc2ccccc2)cc(S(N)(=O)=O)cc1C(=O)O [drawing 94]
AQP4; at 100 μM
  AQP-4 effect: % block: −35% block at 100 μM

## CCCCNc1c(Oc2ccccc2)cc(S(=O)(=O)NC)cc1C(=O)O
AQP4; at 100 μM
  AQP-4 effect: % block: −40%
AQP4
  AQP-4 effect: comparison with bumetanide (in words): Improved block

## CCCCNc1cc(C(=O)NCCN2CCN(C)CC2)cc(S(N)(=O)=O)c1Oc1ccccc1 [drawing 101]
AQP4; at 10 μM
  AQP-4 effect: % activation: 110% activation at 10

## CCCCNc1cc(C(=O)Nc2ccncc2)cc(S(N)(=O)=O)c1Oc1ccccc1 [drawing 107]
AQP4; at 10 μM
  AQP-4 effect: % block: 80%
  toxicity observed in AQP-4 test: some toxicity observed

## CCCCNc1cc(C(=O)NCCN2CCS(=O)(=O)CC2)cc(S(N)(=O)=O)c1Oc1ccccc1 [AQP-0009]
AQP4; 10 μM given extracellularly
  AQP-4 effect: % activation: 60%
AQP4; [5]
  AQP-4 effect (arrow symbol): ↑

## NS(=O)(=O)c1cc(C(=O)O)c(Cl)cc1NCc1ccccc1
AQP4; at 100 μM
  AQP-4 effect (in words): p > 0.05 No significant Antagonist Effect at 100 μM

## NS(=O)(=O)c1cc(C(=O)O)c(NCc2ccco2)cc1Cl [drawing 117]
AQP4; arrow symbols, key not given
  AQP-4 effect (arrow symbol): ? ↑
AQP1 [1]; arrow symbols, key not given
  AQP-1 effect (arrow symbol): ═

## CCCCNc1cc(C(=O)Nc2ccncc2)cc(S(N)(=O)=O)c1Oc1ccccc1 [AQP-0013]
AQP4; 10 μM extracellularly
  AQP-4 effect: % block: 80%
AQP4; [5]
  AQP-4 effect (arrow symbol): ↓↓

## CCCCNc1cc(C(=O)NCCN2CCN(CCN)CC2)cc(S(N)(=O)=O)c1Oc1ccccc1
AQP4; at 10 μM
  AQP-4 effect (in words): No Significant effect at 10 μM

## CCCCNc1cc(C(=O)Nc2ccccn2)cc(S(N)(=O)=O)c1Oc1ccccc1
AQP4; at 10 μM
  AQP-4 effect (in words): No Significant effect at 10 μM

## COC(=O)c1cc(S(N)(=O)=O)c(Cl)cc1NCc1ccco1 [drawing 114]
AQP4; arrow symbols, key not given
  AQP-4 effect (arrow symbol): ═
AQP1 [1]; arrow symbols, key not given
  AQP-1 effect (arrow symbol): ↓↓

## CCCCNc1c(Oc2ccccc2)cc(S(N)(=O)=O)cc1C(=O)OC
AQP4; at 1 μM extracellularly
  AQP-4 effect: % block: −30%
AQP4
  AQP-4 effect: comparison with bumetanide (in words): Improved potency over bumetanide

## CCCCNc1cc(C(=O)NCc2ccccn2)cc(S(N)(=O)=O)c1Oc1ccccc1
AQP4; at 10 μM
  AQP-4 effect (in words): No Significant effect at 10 μM

## NS(=O)(=O)c1cc(C(=O)O)c(NCc2ccco2)cc1NCc1ccco1 [AQP-0033]
AQP4; 100 μM, route not stated
  AQP-4 effect: % agonist effect: −25%
AQP4; [5]
  AQP-4 effect (arrow symbol): ↑
AQP1 [1]
  AQP-1 effect (in words): No significant effect
AQP1 [1]; [6]
  AQP-1 effect (arrow symbol): ═

## NS(=O)(=O)c1cc2c(=O)ncn(Cc3ccco3)c2cc1Cl
AQP4; at 100 μM
  AQP-4 effect (in words): p > 0.05 No significant Antagonist Effect at 100 μM

## CCCCNc1c(Oc2ccccc2)cc(S(=O)(=O)NC)cc1C(=O)OC
AQP4; at 10 μM extracellularly
  AQP-4 effect: % block: −40%
AQP4
  AQP-4 effect: comparison with bumetanide (in words): Improved potency over bumetanide

## CC[N+](CC)(CC)CC [tetraethylammonium (TEA), tetraethylammonium]
AQP1 [3]
  water flux through AQP1 channels: blocks water flux

## Cc1cccc(Nc2ccncc2S(=O)(=O)NC(=O)NC(C)C)c1 [torsemide, reference compound]
AQP4; concentrations up to 1 mM
  block of swelling in AQP4-expressing oocytes: no blocking effect
[4]
  IC50: 300 nM

## C=CCNS(=O)(=O)c1cc(C(=O)OC)c(NCc2ccco2)cc1Cl [drawing 119]
AQP4; arrow symbols, key not given
  AQP-4 effect (arrow symbol): (↑)?
AQP4; at 100 μM
  AQP-4 effect (in words): No significant Antagonist Effect
AQP1 [1]; arrow symbols, key not given
  AQP-1 effect (arrow symbol): ═

## CCCCNc1cc(C(=O)NCCCN2CCN(C)CC2)cc(S(N)(=O)=O)c1Oc1ccccc1
AQP4; at 10 μM
  AQP-4 effect (in words): No Significant effect at 10 μM

## CCCCNc1cc(C(=O)NCCN2CCOCC2)cc(S(N)(=O)=O)c1Oc1ccccc1
AQP4; at 10 μM
  AQP-4 effect (in words): Some agonist trend at 10 μM

## O=C(O)c1cc(S(=O)(=O)NCc2ccccc2)c(Cl)cc1NCc1ccco1
AQP4; arrow symbols, key not given
  AQP-4 effect (arrow symbol): ═
AQP1 [1]; arrow symbols, key not given
  AQP-1 effect (arrow symbol): ↓
